Experiments:
3×TG+/− mice = test: Learning and memory tests (Morris water maze, novel object recognition) in 3×TG+/− mice; assay type: in vivo, mouse; conditions: 12-15 months old 3×TG+/− mice, 3.2 mg/kg/day for one month; vs DMSO
Protocol: (§1) Genetically engineered mice of 12-15 months old, 3×TG+/− (Oddo et al., 2003), RyR2-E4872Q+/− (EQ+/−)(Chen et al., 2014), 3×TG+/−/RyR2-E48720+/− (3×TG+/−/EQ+/−), and WT littermates of both sexes were used. Sex differences, which may produce biological variables, were not investigated in this study. R-carvedilol (R-CV) (3.2 mg/kg/day) and vehicle control (DMSO) were delivered to 3×TG+/− mice in drinking water for one month. As shown previously, only heterozygous RyR2-E4872Q+/− mutant mice were produced as homozygous E4872Q+/+mutation is embryonic lethal (Chen et al., 2014). Functional RyR2s are tetrameric channels formed by 4 RyR2 monomers. The heterozygous E4872Q+/− mutant mice (harboring one WT allele and one E4872Q mutant allele) will produce a mixture of homo- and hetero-tetrameric channels that contain the WT, E48720 mutant, or both WT/E4872Q mutant monomers. Thus, the RyR2-E4872Q mutation can exert its negative impact not only on the function of the E4872Q homo-tetramers, but also on the function of the WT monomer in the WT/E4872Q hetero-tetrameric channels.
The learning and memory of mice with all genotypes were evaluated using the Morris water maze (MWM) test, the Barnes maze (BM) test, and/or the novel object recognition (NOR) test. Experiments were carried out blindly. For the MWM test, mice at different ages were trained to localize a hidden escape platform (10×10 cm) in a circular pool (116.84 cm in diameter, 50 cm in depth) (San Diego Instruments, CA) via distal visual cue. The platform was submerged 1-2 cm beneath the surface in water (22-24°C.), which was rendered opaque by addition of milk powder. The localization of the pool in relation to visual cues was maintained constantly during the entire task. The cues were distinct in color and shape. Digital division of the tracking area (pool) into four quadrants was performed by the SMART video tracking system, Smart 3.0 (Panlab Harvard Apparatus; Barcelona Spain). The escape platform was placed in the centre of the south-west quadrant for the entirety of the learning phase (4 training days) and digitally defined as target. Spatial training consisted of 4 days with 5 trials per mouse per day. Mice were released with their heads facing the pool wall at one of four entry locations (north, east, south and west) in a non-repetitive random order. Swimming was automatically video-tracked until the subject found the escape platform and remained on it (≥5 sec), or until a maximum of 60 seconds. […] In between trials (inter-trial interval ≥10 min), mice were housed in heated cages to avoid performance deficits due to exhaustion or hypothermia. The latency and swimming speed to reach the escape platform were recorded for comparison. After the learning phase, memory retention was evaluated by one probe trial 24 hours after the last training session. The escape platform was removed before mice were released from the north entry point into the pool. Their swimming was video-tracked for 60 seconds. […] The percentage of time mice spent in the target quadrant (including the target) were measured for comparison.
For the NOR test, mice were habituated for 10 min per mouse in an equally illuminated, odor-free, white, plastic box (40×40×50 cm^3) embedded with fresh aspen shavings and shreds. […] Mice were video recorded during this familiarizing phase. Side preferences was evaluated by dividing the time a mouse spent exploring one object by the time they spent at the other object. […]

RyR2 = conditions: cardiac cells; cited from earlier work
[1] = test system: hippocampal CA1 and subiculum neurons of 3×TG+/− mice; test: Nissl staining, neuron density in 3×TG+/− mice; assay type: in vivo, mouse; conditions: 12-15 months old 3×TG+/− mice, 3.2 mg/kg/day for one month; vs DMSO
Protocol: as §1
For the Nissl staining, paraffin-embedded brain tissue sections (5 μm) were immersed in xylene (5 min, 2 times), rehydrated in absolute ethanol (5 min, 2 times) followed by 95%, 75% and 50% solutions of ethanol in water (5 min each), then washed in distilled water for 2 times, 5 min each. […]

Aβ plaques = Aβ plaques (immunohistochemical staining) in 3×TG+/− mice; assay type: in vivo, mouse; conditions: 12-15 months old 3×TG+/− mice, 3.2 mg/kg/day for one month; vs DMSO
Protocol: as §1
Mice of different ages and genotypes were anesthetized and transcardially perfused with 10% neutral buffered formalin (NBF). Whole brains were removed and post-fixed in NBF for at least 24 h. The fixed brains were then embedded in paraffin after dehydration and diaphanization. […]

## COc1ccccc1OCCNC[C@@H](O)COc1cccc2[nH]c3ccccc3c12 [R-carvedilol, R-(+)-carvedilol]
3×TG+/− mice
  discrimination index in the NOR test: increased
  latency to the target platform in the MWM test: significantly shortened
  swimming speed in the MWM test: increased
  time spent in the target zone in the MWM test: increased
  walking velocity in the NOR test: increased
RyR2
  RyR2 open time: shortened
[1]
  density of neurons in the hippocampal CA1 region: no significant difference
  density of neurons in the subiculum area: significantly higher
Aβ plaques
  area of Aβ plaques in the hippocampal region: no significant difference
  number of Aβ plaques in the hippocampal region: no significant difference
